Here are results for 16 compounds from US20100286219A1, “1, 3-Dihydroimidazoles for Treating Cardiovascular Disorders” (BIAL - PORTELA & CA S.A., priority 2007, published 2010).

For the test, the target named is T1, human DβH (Homo sapiens, UniProt P09172).
T1 construct: endogenous in cells; host or cells: SK-N-SH cells
T1 sequence (P09172 1-617): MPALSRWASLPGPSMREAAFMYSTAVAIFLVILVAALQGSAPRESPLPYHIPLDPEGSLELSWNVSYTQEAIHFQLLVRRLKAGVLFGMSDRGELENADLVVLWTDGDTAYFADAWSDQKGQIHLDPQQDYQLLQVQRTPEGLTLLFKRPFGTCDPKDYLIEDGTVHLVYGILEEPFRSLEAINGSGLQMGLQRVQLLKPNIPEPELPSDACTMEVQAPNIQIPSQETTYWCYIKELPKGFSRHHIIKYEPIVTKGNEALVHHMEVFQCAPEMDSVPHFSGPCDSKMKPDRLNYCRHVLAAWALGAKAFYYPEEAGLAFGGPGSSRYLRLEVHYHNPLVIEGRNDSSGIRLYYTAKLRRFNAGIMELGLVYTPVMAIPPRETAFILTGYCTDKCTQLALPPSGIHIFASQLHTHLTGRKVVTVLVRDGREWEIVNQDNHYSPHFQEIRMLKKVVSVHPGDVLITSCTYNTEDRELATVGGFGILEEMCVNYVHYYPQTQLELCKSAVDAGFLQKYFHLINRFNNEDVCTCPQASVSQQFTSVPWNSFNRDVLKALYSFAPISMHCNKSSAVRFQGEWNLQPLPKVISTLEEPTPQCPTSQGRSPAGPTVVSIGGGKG
The experiment in a line: DβH activity in SK-N-SH cells (β-hydroxylation of dopamine to noradrenaline). As to conditions: for inhibition of DβH activity (in words): as listed in Table 1, 5 μM; for DβH activity, Mean ± SEM, % of control: compound 5 μM; for IC50 against human DβH activity (in words): concentration-dependent decrease in β-hydroxylation of dopamine. The test is classed as cell-based.

As to `Cl.NCCc1c[nH]c(=S)n1[C@H]1COc2cc(F)c(F)cc2C1` [Compound 8, (R)-5-(2-aminoethyl)-1-(6,7-difluorochroman-3-yl)-1,3-dihydroimidazole-2-thione hydrochloride], the “inhibition of DβH activity (in words)” value is on record as “markedly inhibit”.
Regarding `Cl.NCCc1c[nH]c(=S)n1[C@H]1COc2ccc(F)cc2C1` [Compound 7, (R)-5-(2-aminoethyl)-1-(6-fluorochroman-3-yl)-1,3-dihydroimidazole-2-thione hydrochloride], the “inhibition of DβH activity (in words)” value is reported as “markedly inhibit” and the “DβH activity, Mean ± SEM, % of control” value is reported as 8.0 ± 0.1 % of control.
The corresponding values for `Cl.NCc1c[nH]c(=S)n1[C@H]1COc2ccccc2C1` [Compound 24, (R)-5-aminomethyl-1-chroman-3-yl-1,3-dihydroimidazole-2-thione hydrochloride] are “markedly inhibit” and 0.0 ± 1.9 % of control.
On to `Cl.NCc1c[nH]c(=S)n1[C@H]1COc2c(F)cc(F)cc2C1` [Compound 3, (R)-5-aminomethyl-1-(6,8-difluorochroman-3-yl)-1,3-dihydroimidazole-2-thione hydrochloride], for which the “inhibition of DβH activity (in words)” value was “markedly inhibit” and the “IC50 against human DβH activity (in words)” value was “low nM range”.
Turning to `CNCCc1c[nH]c(=S)n1[C@H]1COc2ccccc2C1.Cl` [Compound 29, (R)-1-Chroman-3-yl-5-(2-methylaminoethyl)-1,3-dihydroimidazole-2-thione hydrochloride], the “inhibition of DβH activity (in words)” value is reported as “markedly inhibit”.
Take `Cl.NCCc1c[nH]c(=S)n1[C@H]1COc2ccc(O)cc2C1` [Compound 16, (R)-5-(2-aminoethyl)-1-(6-hydroxychroman-3-yl)-1,3-dihydroimidazole-2-thione hydrochloride]: the “inhibition of DβH activity (in words)” value is given as “markedly inhibit” and the “DβH activity, Mean ± SEM, % of control” value was 0.0 ± 0.6 % of control.
With `Cl.NCCc1c[nH]c(=S)n1[C@H]1CSc2ccc(O)cc2C1` (racemic) [Compound 31, (R,S)-5-(2-aminoethyl)-1-(6-hydroxythiochroman-3-yl)-1,3-dihydroimidazole-2-thione hydrochloride], the “DβH activity, Mean ± SEM, % of control” value is 27.3 ± 0.4 % of control.
As to `Cl.NCCc1c[nH]c(=S)n1[C@H]1COc2ccccc2C1` [Compound 12, (R)-5-(2-aminoethyl)-1-chroman-3-yl-1,3-dihydroimidazole-2-thione hydrochloride], the “inhibition of DβH activity (in words)” value is on record as “markedly inhibit” and the “DβH activity, Mean ± SEM, % of control” value was 3.0 ± 0.5 % of control.
`Cl.NCCCc1c[nH]c(=S)n1[C@H]1CCc2c(F)cc(F)cc2C1` [Compound 5, (S)-5-(3-aminopropyl)-1-(5,7-difluoro-1,2,3,4-tetrahydronaphthalen-2-yl)-1,3-dihydroimidazole-2-thione hydrochloride]: the “inhibition of DβH activity (in words)” value is given as “markedly inhibit”.
The same measure, in the same setting: the value for `COc1cccc2c1OC[C@H](n1c(CCN)c[nH]c1=S)C2.Cl` [Compound 19, (R)-5-(2-aminoethyl)-1-(8-methoxychroman-3-yl)-1,3-dihydroimidazole-2-thione hydrochloride] was “markedly inhibit”; that for `CNCCc1c[nH]c(=S)n1[C@H]1COc2c(F)cc(F)cc2C1.Cl` [Compound 28, (R)-1-(6,8-Difluorochroman-3-yl)-5-(2-methylaminoethyl)-1,3-dihydroimidazole-2-thione hydrochloride] was “markedly inhibit”.
For `Cl.NCCc1c[nH]c(=S)n1[C@H]1COc2c(cc(F)c(F)c2F)C1` [Compound 10, (R)-5-(2-aminoethyl)-1-(6,7,8-trifluorochroman-3-yl)-1,3-dihydroimidazole-2-thione hydrochloride], the “inhibition of DβH activity (in words)” value is listed as “markedly inhibit”.
Regarding `Cl.NCCc1c[nH]c(=S)n1[C@H]1CCc2c(F)cc(F)cc2C1` [Compound 2, (S)-5-(2-aminoethyl)-1-(5,7-difluoro-1,2,3,4-tetrahydronaphthalen-2-yl)-1,3-dihydroimidazole-2-thione hydrochloride], the “inhibition of DβH activity (in words)” value is given as “markedly inhibit” and the “IC50 against human DβH activity (in words)” value is recorded as “low nM range”.
Take `COc1ccc2c(c1)C[C@@H](n1c(CCN)c[nH]c1=S)CS2.Cl` (racemic) [Compound 30, (R,S)-5-(2-aminoethyl)-1-(6-methoxythiochroman-3-yl)-1,3-dihydroimidazole-2-thione hydrochloride]: the “DβH activity, Mean ± SEM, % of control” value is reported as 99.4 ± 2.8 % of control.
With `Cl.Oc1ccc2c(c1)C[C@@H](n1c(CCNCc3ccccc3)c[nH]c1=S)CO2` [Compound 26, (R)-5-(2-Benzylaminoethyl)-1-(6-hydroxychroman-3-yl)-1,3-dihydroimidazole-2-thione hydrochloride], the “inhibition of DβH activity (in words)” value is given as “markedly inhibit”.
Same read-out and setting: the value for `Cl.NCCc1c[nH]c(=S)n1[C@H]1COc2c(F)cccc2C1` [Compound 6, (R)-5-(2-aminoethyl)-1-(8-fluorochroman-3-yl)-1,3-dihydroimidazole-2-thione hydrochloride] was “markedly inhibit”.
